# Target: T1, human 11β-HSD1 (Homo sapiens, UniProt P28845)
# T1 construct: host or cells: microsome fraction
# Experiment: Enzymatic 11beta-HSD1 test (SPA-based detection)
# Assay type: biochemical
# Details: human 11β-HSD1 microsome fraction, [1,2-3H]-cortisone, NADPH, 37° C. 1 hour
# How it was run: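 Scintillation proximity detection: anti-cortisol antibody on SPA-PVT beads captured tritiated cortisol. The stop mix also contained 0.01 mM SSR110887 and was equilibrated 1 h at room temperature before counting. Cortisol came from [1,2-3H]-cortisone ([…]), turned over by human 11β-HSD1 microsomal protein (0.2 µg) with 0.25 mM NADPH in HEPES buffer, 37 °C, 1 h.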
# T1 sequence (P28845 whole entry): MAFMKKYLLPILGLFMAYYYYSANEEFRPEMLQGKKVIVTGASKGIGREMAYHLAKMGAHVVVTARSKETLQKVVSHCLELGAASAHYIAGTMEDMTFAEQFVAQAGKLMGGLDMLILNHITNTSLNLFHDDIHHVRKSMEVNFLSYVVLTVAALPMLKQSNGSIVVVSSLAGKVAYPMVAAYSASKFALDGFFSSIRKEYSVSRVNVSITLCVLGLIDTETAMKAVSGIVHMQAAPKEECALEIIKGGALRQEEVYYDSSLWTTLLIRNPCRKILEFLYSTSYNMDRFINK
row,SMILES,IC50 [nM]
1,CN1CCN(c2ccc(-c3ccc(C4C(C)(C)OC(N[C@@H](CCO)c5ccccc5F)=NS4(=O)=O)cc3)cc2)CC1 (stereo partly drawn) [Example 114],8
2,"Cc1n[nH]cc1-c1ccc(C2C(C)(C)OC(N[C@@H](CCO)c3ccccc3F)=NS2(=O)=O)cc1 (stereo partly drawn) [Example 115, (S)-3-{6,6-Dimethyl-5-[4-(3-methyl-1H-pyrazol-yl)-phenyl]-4,4-dioxo-5,6-dihydro-4H-4lambda6-[1,4,3]oxathiazin-2-ylamino}-3-(2-fluorophenyl)-propan-1-ol]",5
3,"CN(CCCc1ccc(C2C(C)(C)OC(N[C@@H](CCO)c3ccccc3F)=NS2(=O)=O)cc1)CC(F)F (stereo partly drawn) [Example 116, (S)-3-[5-(4-{3-[(2,2-Difluoroethyl)-methyl-amino]-propyl}-phenyl)-6,6-dimethyl-4,4-dioxo-5,6-dihydro-4H-4lambda6-[1,4,3]oxathiazin-2-ylamino]-3-(2-fluorophenyl)-propan-1-ol]",5
4,"CNCCCc1ccc(C2C(C)(C)OC(N[C@@H](CCO)c3ccccc3F)=NS2(=O)=O)cc1 (stereo partly drawn) [Example 117, (S)-3-{6,6-Dimethyl-5-[4-(3-methylamino-propyl)-phenyl]-4,4-dioxo-5,6-dihydro-4H-4lambda6-[1,4,3]oxathiazin-2-ylamino}-3-(2-fluorophenyl)-propan-1-ol]",23
5,"CC1(C)OC(N[C@@H](CCO)c2ccccc2F)=NS(=O)(=O)C1c1ccc(-c2csc(N3CCOCC3)n2)cc1 (stereo partly drawn) [Example 118, (S)-3-{6,6-Dimethyl-5-[4-(2-morpholin-4-yl-thiazol-4-yl)-phenyl]-4,4-dioxo-5,6-dihydro-4H-4lambda6-[1,4,3]oxathiazin-2-ylamino}-3-(2-fluorophenyl)-propan-1-ol]",8
6,"CC1(C)OC(N[C@@H](CCO)c2ccccc2F)=NS(=O)(=O)C1c1ccc(-c2ccncc2)cc1 (stereo partly drawn) [Example 119, (S)-3-[6,6-Dimethyl-4,4-dioxo-5-(4-pyridin-4-yl-phenyl)-5,6-dihydro-4H-4lambda6-[1,4,3]oxathiazin-2-ylamino]-3-(2-fluorophenyl)-propan-1-ol]",6

# The remaining lines, values ahead:
row,IC50 [nM],SMILES
1,6,"CC1(C)OC(N[C@@H](CCO)c2ccccc2F)=NS(=O)(=O)C1c1ccc(-c2ccc(C(N)=O)cc2)cc1 (stereo partly drawn) [Example 120, 4′-{2-[(S)-1-(2-fluorophenyl)-3-hydroxy-propylamino]-6,6-dimethyl-4,4-dioxo-5,6-dihydro-4H-4lambda6-[1,4,3]oxathiazin-5-yl}-biphenyl-4-carboxylic acid amide]"
2,8,"CC1(C)OC(N[C@@H](CCO)c2ccccc2F)=NS(=O)(=O)C1c1ccc(-c2cn[nH]c2)cc1 (stereo partly drawn) [Example 121, (S)-3-{6,6-Dimethyl-4,4-dioxo-5-[4-(1H-pyrazol-4-yl)-phenyl]-5,6-dihydro-4H-4lambda6-[1,4,3]oxathiazin-2-ylamino}-3-(2-fluorophenyl)-propan-1-ol]"
3,35,CN(CCO)CCCc1ccc(C2C(C)(C)OC(N[C@@H](CCO)c3ccccc3F)=NS2(=O)=O)cc1 (stereo partly drawn) [Example 122]
4,13,"CN(C)Cc1ccc(-c2ccc(C3C(C)(C)OC(N[C@@H](CCO)c4ccccc4F)=NS3(=O)=O)cc2)cc1 (stereo partly drawn) [Example 123, (S)-3-[5-(4′-Dimethylaminomethyl-biphenyl-4-yl)-6,6-dimethyl-4,4-dioxo-5,6-dihydro-4H-4lambda6-[1,4,3]oxathiazin-2-ylamino]-3-(2-fluorophenyl)-propan-1-ol]"
5,8,"Cn1cc(-c2ccc(C3C(C)(C)OC(N[C@@H](CCO)c4ccccc4F)=NS3(=O)=O)cc2)cn1 (stereo partly drawn) [Example 124, (S)-3-{6,6-Dimethyl-5-[4-(1-methyl-1H-pyrazol-yl)-phenyl]-4,4-dioxo-5,6-dihydro-4H-4lambda6-[1,4,3]oxathiazin-2-ylamino}-3-(2-fluorophenyl)-propan-1-ol]"
6,4,"CN1CCN(c2ncc(-c3ccc(C4C(C)(C)OC(N[C@@H](CCO)c5ccccc5F)=NS4(=O)=O)cc3)cn2)CC1 (stereo partly drawn) [Example 125, (S)-3-(6,6-Dimethyl-5-{4-[2-(4-methyl-piperazin-1-yl)-pyrimidin-5-yl]-phenyl}-4,4-dioxo-5,6-dihydro-4H-4lambda6-[1,4,3]oxathiazin-2-ylamino)-3-(2-fluorophenyl)-propan-1-ol]"

# Reference: patent US8895547B2, “Substituted phenyl-oxathiazine derivatives, method for producing them, drugs containing said compounds and the use thereof” (Sanofi, priority 2011, dated 2014)
